Active and inactive are the calls of the source. The rule behind the calls is not given here.
How the values were obtained:
[1] = test system: A549; test: Antiproliferative activity against human A549 cells assessed as inhibition of cell growth at 30 uM incubated for 48 hrs by CCK8 assay; format: functional, cell-based
[2] = test system: A549; test: Antiproliferative activity against human A549 cells assessed as effect on cell proliferation at =< 30 uM incubated for 24 hrs by CCK8 assay; format: functional, cell-based
[3] = test system: A549; test: Antiproliferative activity against human A549 cells assessed as cell survival rate at 2.5 uM incubated for 48 hrs by CCK8 assay; format: functional; settings: A549, 48 h, read-out: Survival
[4] = test system: A549; test: Antiproliferative activity against human A549 cells assessed as cell survival rate at 5 uM incubated for 48 hrs by CCK8 assay; format: functional; settings: A549, 48 h, read-out: Survival
[5] = test system: A549; test: Antiproliferative activity against human A549 cells assessed as cell survival rate at 10 uM incubated for 48 hrs by CCK8 assay; format: functional; settings: A549, 48 h, read-out: Survival
[6] = test system: A549; test: Antiproliferative activity against human A549 cells assessed as cell survival rate at 15 uM incubated for 48 hrs by CCK8 assay; format: functional; settings: A549, 48 h, read-out: Survival
[7] = test system: A549; test: Antiproliferative activity against human A549 cells assessed as cell survival rate at 20 uM incubated for 48 hrs by CCK8 assay; format: functional; settings: A549, 48 h, read-out: Survival
[8] = test system: A549; test: Inhibition of TGFbeta1-induced epithelial-mesenchymal transition in human A549 cells assessed as suppression of mesenchymal phenotype at 15 and 20 uM pre-treated for 2 hrs before TGFbeta1 stimulation for 48 hrs; format: functional, cell-based
[9] = test system: A549; test: Inhibition of TGFbeta1-induced reduction in E-cadherin expression in human A549 cells assessed as suppresion of mesenchymal phenotype at 15 and 20 uM pre-treated for 2 hrs before TGFbeta1 stimulation for 48 hrs by Western blot method; format: functional, cell-based
[10] = test system: A549; test: Inhibition of TGFbeta1-induced reduction in E-cadherin expression in human A549 cells at 15 and 20 uM pre-treated for 2 hrs before TGFbeta1 stimulation for 48 hrs by Western blot method; format: functional, cell-based
[11] = test system: A549; test: Inhibition of TGFbeta1-induced increase in N-cadherin expression in human A549 cells at 15 and 20 uM pre-treated for 2 hrs before TGFbeta1 stimulation for 48 hrs by Western blot method; format: functional, cell-based
[12] = test system: A549; test: Inhibition of TGFbeta1-induced increase in vimentin expression in human A549 cells at 15 and 20 uM pre-treated for 2 hrs before TGFbeta1 stimulation for 48 hrs by Western blot method; format: functional, cell-based
[13] = test system: A549; test: Inhibition of TGFbeta1-induced increase in Snail gene expression in human A549 cells at 15 and 20 uM pre-treated for 2 hrs before TGFbeta1 stimulation for 48 hrs by qRT-PCR method; format: functional, cell-based
[14] = test system: A549; test: Inhibition of TGFbeta1-induced increase in Snail protein expression in human A549 cells at 15 and 20 uM pre-treated for 2 hrs before TGFbeta1 stimulation for 48 hrs by Western blot method; format: functional, cell-based
[15] = test system: A549; test: Inhibition of TGFbeta1-induced cell migration of human A549 cells at 15 and 20 uM incubated for 48 hrs by wound healing assay; format: functional, cell-based
[16] = test system: A549; test: Inhibition of TGFbeta1-induced cell invasion of human A549 cells at 15 and 20 uM incubated for 48 hrs by matrigel cell invasion assay; format: functional, cell-based
[17] = test system: A549; test: Inhibition of TGFbeta1-induced anoikis resistance in human A549 cells grown on poly-HEMA-coated tissue culture plates at 15 and 20 uM pre-treated for 2 hrs before TGFbeta1 stimulation for 48 hrs; format: functional, cell-based
[18] = test system: A549; test: Inhibition of TGFbeta1-induced anoikis resistance in human A549 cells grown on poly-HEMA-coated tissue culture plates assessed reduction in PARP cleavage at 15 and 20 uM pre-treated for 2 hrs before TGFbeta1 stimulation for 48 hrs by Western blot method; format: functional, cell-based
[19] = test system: A549; test: Inhibition of TGFbeta1-induced anoikis resistance in human A549 cells grown on poly-HEMA-coated tissue culture plates assessed reduction in cell proliferation at 15 and 20 uM pre-treated for 2 hrs before TGFbeta1 stimulation for 48 hrs by SRB assay; format: functional, cell-based
[20] = target: Mothers against decapentaplegic homolog 2 (Homo sapiens) (UniProt Q15796); test: Inhibition of TGFbeta1-induced Smad2 phosphorylation in human A549 cells at 15 and 20 uM pre-treated for 2 hrs before TGFbeta1 stimulation for 48 hrs by Western blot method; format: cell-based
Sequence of Mothers against decapentaplegic homolog 2 (Homo sapiens) (Q15796 whole entry): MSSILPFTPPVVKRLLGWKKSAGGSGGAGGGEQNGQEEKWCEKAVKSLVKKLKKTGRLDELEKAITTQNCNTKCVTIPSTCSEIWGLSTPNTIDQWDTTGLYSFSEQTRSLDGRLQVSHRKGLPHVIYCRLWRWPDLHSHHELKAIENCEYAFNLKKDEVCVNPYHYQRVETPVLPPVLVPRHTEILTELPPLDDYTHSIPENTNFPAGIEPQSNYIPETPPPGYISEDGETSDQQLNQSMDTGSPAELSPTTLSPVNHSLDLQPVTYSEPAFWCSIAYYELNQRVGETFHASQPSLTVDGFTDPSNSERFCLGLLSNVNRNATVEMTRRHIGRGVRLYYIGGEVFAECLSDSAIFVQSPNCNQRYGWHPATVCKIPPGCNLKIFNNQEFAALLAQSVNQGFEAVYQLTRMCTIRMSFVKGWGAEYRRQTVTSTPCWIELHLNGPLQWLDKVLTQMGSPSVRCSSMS

With `O=C1O[C@H]2[C@@H]3OC(=O)c4cc(O)c(O)c(O)c4-c4c(cc(O)c(O)c4O)C(=O)OC[C@H]2O[C@@H](OC(=O)c2cc(O)c(O)c(O)c2)[C@@H]3OC(=O)c2cc(O)c(O)c3c2[C@@H]2C1=CC(=O)[C@](O)(O3)C2(O)O` [GERANIIN] the “growth inhibition (GI)” value [1] was “Active”, the Activity [2] was “inactive” and the viability at 2.5 µM [3] was > 90%. The viability at 5 µM [4] was > 90%, the viability at 10 µM [5] was > 90% and the viability at 15 µM [6] was > 90%. The viability at 20 µM [7] was > 90%, the inhibition [8] was “Active” and the inhibition [9] was “Active”. The inhibition [10] was “Active”, the inhibition [11] was “Active” and the inhibition [12] was “Active”. For the same compound, the inhibition [13] was “Dose-dependent effect”, the inhibition [14] was “Dose-dependent effect” and the inhibition [15] was “Dose-dependent effect”. For the same compound, the inhibition [16] was “Active”, the inhibition [17] was “Active” and the inhibition [18] was “Active”. For the same compound, the inhibition [19] was “Dose-dependent effect” and the inhibition [20] was “Active”.

— ChEMBL document CHEMBL3603758, “Geraniin inhibits TGF-β1-induced epithelial-mesenchymal transition and suppresses A549 lung cancer migration, invasion and anoikis resistance” (2015)
